Laboratory results from patent US20130078718A1, “CONVERSION OF VASCULAR ENDOTHELIAL CELLS INTO MULTIPOTENT STEM-LIKE CELLS” (PRESIDENT AND FELLOWS OF HARVARD COLLEGE, priority 2010, published 2013).
Entries after “also recorded” stand apart in the source; their conditions may differ.

Legend:
[1] = test system: endothelial cells (HUVEC, HCMEC); experiment: RNA interference: effect of ALK siRNA on TGF-β2- or BMP4-induced EndMT and multipotency; assay type: cell-based, human
Protocol: Cells were grown in StemPro osteogenic, chondrogenic, or adipogenic culture medium (Invitrogen). Alkaline phosphatase staining was performed using the alkaline phosphatase kit and protocol (Sigma-Aldrich) on cultures grown in osteogenic medium for 7 days to detect osteoblasts. Alizarin Red (Sigma-Aldrich) staining was performed for 30 minutes on cultures grown in osteogenic medium for 21 days to detect matrix calcification. Alcian Blue (Sigma) staining was used to stain chondrocyte proteoglycans for 5 minutes in cultures grown in chondrogenic medium for 14 days. Oil Red O (Sigma-Aldrich) staining was performed for 15 minutes on cultures grown in adipogenic medium for 7 days.
(§1) siRNA gene expression knockdown studies were performed using the TriFECTa RNAi kit (Integrated DNA Technologies) and corresponding protocol. Each 27 mer siRNA duplex was transfected into cells using X-tremeGene siRNA transfection reagent (Roche) following the manufacturer's guidelines. siRNA was synthesized (Integrated DNA Technologies) with the following sequences: ALK2: 5′-[…]-3′ (SEQ ID NO: 51); negative control: 5′-[…]-3′ (SEQ ID NO: 52).
Cells were grown in StemPro osteogenic, chondrogenic, or adipogenic culture medium (Invitrogen). Alkaline phosphatase staining was performed using the alkaline phosphatase kit and protocol (Sigma-Aldrich) on cultures grown in osteogenic medium for 7 d to detect osteoblasts. Alizarin Red (Sigma-Aldrich) staining was performed for 30 min on cultures grown in osteogenic medium for 21 d to detect matrix calcification. Alcian Blue (Sigma) staining was used to stain chondrocyte proteoglycans for 5 minutes in cultures grown in chondrogenic medium for 14 d. Oil Red O (Sigma-Aldrich) staining was performed for 15 min on cultures grown in adipogenic medium for 7 d. For in vivo analysis, endothelial cells were labeled with fluorescent quantum dots using the Qtracker 525 Cell Labeling Kit (Invitrogen). Cells were treated in culture to induce EndMT then absorbed into OPLA polylactic acid scaffolds (BD Biosciences). Scaffolds were surgically implanted subcutaneously into immunodeficient nude mice (Nu/Nu strain; Charles River Laboratories). Local injection of StemPro differentiation medium (described above) was performed in the area of the implants every 72 h for 6 weeks. Scaffolds were cryosectioned and stained with Alizarin Red, Alcian Blue, or Oil Red O as described above. All procedures were reviewed and approved by the Institutional Animal Care and Use Committee at Harvard Medical School.
(§2) siRNA gene expression knockdown studies were performed using the TriFECTa RNAi kit (Integrated DNA Technologies) and corresponding protocol. Each 27 mer siRNA duplex was transfected into cells using X-tremeGene siRNA transfection reagent (Roche) following the manufacturer's guidelines. siRNA was synthesized (Integrated DNA Technologies) with the following sequences: […]

ALK2 = experiment: siRNA knockdown of ALK2 expression (immunoblotting); assay type: cell-based, human; conditions: transfected for 24 hours
Protocol: as §1, §2

HUVECs = experiment: Assessment of EndMT inhibitors (immunoblotting); assay type: cell-based, human; conditions: dorsomorphin 5 μM, BMP7 10 ng ml−1, VEGF 25 ng ml−1; for TGF-β2-induced changes in CD31, FSP-1 and CD44 expression (immunoblots): HUVECs
Protocol: Human umbilical vein endothelial cells (HUVEC) and human cutaneous microvascular endothelial cells (HCMEC) isolated as previously described (35). Cells were tested for purity and found to express no markers for lymphatic endothelial cells or stromal cells (pericytes, smooth muscle cells, etc.) (36). This was reconfirmed by flow cytometry analysis (data not shown). Clonal populations were isolated with PYREX 8×8 mm cloning cylinders (Corning) and shown to respond in a manner identical to that of the cultures used for our experiments (FIG. 25B-D). Cells were grown in culture using EGM-2 medium (Cambrex), containing 10% FBS and 1% Penicillin/Streptomycin, followed by human endothelial serum free medium (Gibco) 24 h prior to all experimental conditions. Bone marrow derived mesenchymal stem cells (ScienCell Research Laboratories) were grown in mesenchymal stem cell medium (ScienCell Research Laboratories). Bone marrow derived hematopoietic stem cells (Lonza) were grown in HPGM medium (Lonza). Human corneal fibroblasts, from a stock provided by Dr. Elizabeth Hay (Harvard Medical School), were grown in RPMI medium, containing 10% FBS and 1% Penicillin/Streptomycin. Primary human osteoblasts, chondrocytes, and adipocytes and their respective growth media were obtained from Cell Applications, Inc. […] Recombinant VEGF (R&D Systems) was added to cultures at a concentration of 25 ng ml^-1. Dorsomorphin (Sigma-Aldrich) was added to cultures at a concentration of 5 μM. All experiments for this study were performed at minimum in triplicate. Immunoassays were performed using the following antibodies at concentrations (and using protocols) recommended by the respective manufacturers: […] Stressgen), phospho-Smad2 (3101), Smad2 (3122), phospho-Smad5 (9516), Smad5 (9517; […] Santa Cruz Biotechnology), osterix (ab22552), adiponectin (ab22554), N-cadherin (ab76057), NG2 (ab83508), vWF (ab68545; Abcam); CD31 (IR610; Dako), […]; GenScript); α-SMA ([…]), β-actin (A1978; Sigma-Aldrich). Samples were run with Criterion precast SDS-PAGE Gels (Bio-Rad). […] TrueBlot IgG beads (eBioscience) were used for immunoprecipitation experiments. AlexaFluor secondary antibodies (Invitrogen) were used at a dilution of 1:200. Images were acquired using a Nikon 80i fluorescence microscope.

EndMT = conditions: references 30, 31; cited from earlier work
ALK2 with ALK5 = biological target: T1, ALK2 with ALK5 (Homo sapiens, UniProt Q04771); experiment: Interaction of ALK2 with ALK5: immunoprecipitation of ALK2, immunoblotting for ALK5; assay type: cell-based; conditions: 10 ng ml−1, 15 min
T1 construct: endogenous in cells; host or cells: HUVEC
T1 sequence (Q04771 21-509): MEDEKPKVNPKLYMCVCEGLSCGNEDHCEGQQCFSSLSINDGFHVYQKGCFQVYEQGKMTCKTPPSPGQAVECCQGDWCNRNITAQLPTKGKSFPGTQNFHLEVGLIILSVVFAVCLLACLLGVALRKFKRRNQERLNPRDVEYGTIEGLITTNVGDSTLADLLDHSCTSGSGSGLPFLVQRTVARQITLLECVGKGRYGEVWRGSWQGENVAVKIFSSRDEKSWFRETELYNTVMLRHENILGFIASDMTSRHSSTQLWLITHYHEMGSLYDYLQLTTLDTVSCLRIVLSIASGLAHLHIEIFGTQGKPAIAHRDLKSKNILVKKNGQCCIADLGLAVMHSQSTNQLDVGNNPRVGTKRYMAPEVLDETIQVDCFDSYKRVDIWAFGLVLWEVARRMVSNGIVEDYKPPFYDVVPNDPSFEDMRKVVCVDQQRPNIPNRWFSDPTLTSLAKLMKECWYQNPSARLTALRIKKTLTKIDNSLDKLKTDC
Protocol: Human umbilical vein endothelial cells (HUVEC) and human cutaneous microvascular endothelial cells (HCMEC) isolated as previously described (35). Cells were tested for purity and found to express no markers for lymphatic endothelial cells or stromal cells (pericytes, smooth muscle cells, etc.) (36). This was reconfirmed by flow cytometry analysis (data not shown). Clonal populations were isolated with PYREX 8×8 mm cloning cylinders (Corning) and shown to respond in a manner identical to that of the cultures used for our experiments (FIG. 25B-D). Cells were grown in culture using EGM-2 medium (Cambrex), containing 10% FBS and 1% Penicillin/Streptomycin, followed by human endothelial serum free medium (Gibco) 24 h prior to all experimental conditions. Bone marrow derived mesenchymal stem cells (ScienCell Research Laboratories) were grown in mesenchymal stem cell medium (ScienCell Research Laboratories). Bone marrow derived hematopoietic stem cells (Lonza) were grown in HPGM medium (Lonza). Human corneal fibroblasts, from a stock provided by Dr. Elizabeth Hay (Harvard Medical School), were grown in RPMI medium, containing 10% FBS and 1% Penicillin/Streptomycin. Primary human osteoblasts, chondrocytes, and adipocytes and their respective growth media were obtained from Cell Applications, Inc. […] Recombinant VEGF (R&D Systems) was added to cultures at a concentration of 25 ng ml^-1. Dorsomorphin (Sigma-Aldrich) was added to cultures at a concentration of 5 μM. All experiments for this study were performed at minimum in triplicate. Immunoassays were performed using the following antibodies at concentrations (and using protocols) recommended by the respective manufacturers: […] Stressgen), phospho-Smad2 (3101), Smad2 (3122), phospho-Smad5 (9516), Smad5 (9517; […] Santa Cruz Biotechnology), osterix (ab22552), adiponectin (ab22554), N-cadherin (ab76057), NG2 (ab83508), vWF (ab68545; Abcam); CD31 (IR610; Dako), […]; GenScript); α-SMA ([…]), β-actin (A1978; Sigma-Aldrich). […] Images were acquired using a Nikon 80i fluorescence microscope.

Smad2 and Smad5 = experiment: Smad phosphorylation by immunoblotting; assay type: cell-based, human; conditions: HUVECs, 10 ng ml−1, 1 h
Protocol: Human umbilical vein endothelial cells (HUVEC) and human cutaneous microvascular endothelial cells (HCMEC) were provided by J. Bischoff (Children's Hospital Boston) and isolated as previously described^35. […] Cells were grown in culture using EGM-2 medium (Cambrex), containing 10% FBS and 1% Penicillin/Streptomycin, followed by human endothelial serum free medium (Gibco) 24 hours prior to all experimental conditions. Bone marrow derived mesenchymal stem cells (ScienCell Research Laboratories) were grown in mesenchymal stem cell medium (ScienCell Research Laboratories). Human corneal fibroblasts, from a stock initially provided by E. Hay (Harvard Medical School), were grown in RPMI medium, containing 10% FBS and 1% Penicillin/Streptomycin. Primary human osteoblasts, chondrocytes, and adipocytes and their respective growth media were obtained from Cell Applications Inc. Recombinant TGF-β2 and BMP4 proteins (R&D Systems) were added to the serum free culture medium for all relevant experiments at a concentration of 10 ng/mL. Cells were treated for 15 minutes to assess ALK2 phosphorylation, 1 hour to measure Smad5 phosphorylation, or 48 hours to induce EndMT. All experiments for this study were performed at minimum in triplicate.
Immunoassays were performed using the following antibodies at concentrations (and using protocols) recommended by the respective manufacturers: FSP-1 (H00006275-M01; Stressgen), ALK2 (sc-5671), Phospho-tyrosine (sc-7020), VE-cadherin (sc-6458), TIE2 (sc-324, sc-9026), STRO-1 (sc-47733), CD44 (sc-71220), CD90 (sc-9163), Osteocalcin (sc-74495, sc-23790), SOX9 (sc-20095), COL2A1 (sc-59958, sc-52658), PPARγ2 (sc-22022; Santa Cruz Biotechnology), vWF (ab68545; Abcam); His (A00174; GenScript); α-SMA (A5228), β-actin (A1978; Sigma-Aldrich). Samples were run with Criterion precast SDS-PAGE Gels (Bio-Rad). HRP-conjugated IgG TrueBlot reagents (18-8814, 18-8816, 18-8817; eBioscience) were used at a dilution of 1:1000. TrueBlot IgG beads (eBioscience) were used for immunoprecipitation experiments. Alexa Fluor secondary antibodies (Invitrogen) were used at a dilution of 1:200. Images were acquired using a Nikon 80i fluorescence microscope.
Human umbilical vein endothelial cells (HUVEC) and human cutaneous microvascular endothelial cells (HCMEC) isolated as previously described (35). […] Cells were grown in culture using EGM-2 medium (Cambrex), containing 10% FBS and 1% Penicillin/Streptomycin, followed by human endothelial serum free medium (Gibco) 24 h prior to all experimental conditions. Bone marrow derived mesenchymal stem cells (ScienCell Research Laboratories) were grown in mesenchymal stem cell medium (ScienCell Research Laboratories). Bone marrow derived hematopoietic stem cells (Lonza) were grown in HPGM medium (Lonza). Human corneal fibroblasts, from a stock provided by Dr. Elizabeth Hay (Harvard Medical School), were grown in RPMI medium, containing 10% FBS and 1% Penicillin/Streptomycin. Primary human osteoblasts, chondrocytes, and adipocytes and their respective growth media were obtained from Cell Applications, Inc. Recombinant TGF-β2, BMP4, and BMP7 proteins (R&D Systems) were added to the serum free culture medium for all relevant experiments at a concentration of 10 ng ml^−1. Recombinant VEGF (R&D Systems) was added to cultures at a concentration of 25 ng ml^−1. Dorsomorphin (Sigma-Aldrich) was added to cultures at a concentration of 5 μM.

[2] = siRNA 24 hours, then TGF-β2 or BMP4 48 hours
[3] = siRNA transfected, osteogenic medium 7 days

| Molecule | TGF-β2- or BMP4-induced decrease in VE-cadherin and increase in CD44 expression (ELISA) ([1]; HUVECs, ALK-specific siRNA) | TGF-β2- or BMP4-induced increases in FSP-1 and STRO-1 expression (immunoblotting) ([1]; siRNA 24 h, then TGF-β2 or BMP4 48 h) | TGF-β2- or BMP4-induced STRO-1 expression (immunoblotting) [1, 2] | TGF-β2- or BMP4-induced increase in FSP-1 expression (immunoblotting) [1, 2] | cells expressing FSP-1 after TGF-β2 or BMP4 (flow cytometry) [1, 2] | TGF-β2- or BMP4-induced increases in osteocalcin and osterix expression (real-time quantitative PCR) [1, 3] | alkaline phosphatase staining of TGF-β2 or BMP4 treated cultures [1, 3] | ALK2 expression (immunoblotting) (ALK2) | TGF-β2-induced changes in CD31, FSP-1 and CD44 expression (immunoblots) (HUVECs) | effect on EndMT (inhibitor) (HUVECs) | effect on EndMT (EndMT) | ALK5 in ALK2 immunoprecipitates (ALK2 with ALK5) | phosphorylation of Smad2 and Smad5 (immunoblotting) (Smad2 and Smad5) |
| --- | --- | --- | --- | --- | --- | --- | --- | --- | --- | --- | --- | --- | --- |
| ALK2 siRNA: 27 mer siRNA duplex 5'-GCAACACUGUCCAUUCUUCUUAACCAG-3′ (SEQ ID NO: 51/56) (chemistry not fully specified) | inhibited | blocked these increases | prevented TGF-β2- or BMP4-induced increases | completely blocked these increases | very few cells expressing FSP-1 | prevented these increases | no positive staining and none | complete inhibition |  |  |  |  |  |
| VEGF |  |  |  |  |  |  |  |  | inhibition of TGF-β2-induced decreases in CD31 and increases in FSP-1 and CD44 expression | inhibitors of EndMT | inhibit EndMT |  |  |
| BMP7: Recombinant BMP7 protein (R&D Systems), ALK2 activating ligand that inhibits EndMT (protein) STGSKQRSQNRSKTPKNQEALRMANVAENSSSDQRQACKKHELYVSFRDLGWQDWIIAPEGYAAYYCEGECAFPLNSYMNATNHAIVQTLVHFINPETVPKPCCAPTQLNAISVLYFDDSSNVILKKYRNMVVRACGCH |  |  |  |  |  |  |  |  | inhibition of TGF-β2-induced decreases in CD31 and increases in FSP-1 and CD44 expression | inhibits EndMT; also recorded: inhibitors of EndMT |  | No interaction of ALK2 and ALK5 | stimulated phosphorylation of only Smad5 |
